In patent US10351827B2, “Method for differentiating induced pluripotent stem cells into renal proximal tubular cell-like cells” (priority 2013, dated 2019):
Where two headings read alike, the source gives them in different places.

Tested on: iPS(Foreskin)-4-derived d8 HPTC-like cells
[1] = 1 μg/ml, overnight (16 h), qPCR, normalized to vehicle control (=1), mean +/- s.d., n=3
[2] = 10 μg/ml, overnight (16 h), qPCR, normalized to vehicle control (=1), mean +/- s.d., n=3
[3] = 100 μg/ml, overnight (16 h), qPCR, normalized to vehicle control (=1), mean +/- s.d., n=3
[4] = 1,000 μg/ml, overnight (16 h), qPCR, normalized to vehicle control (=1), mean +/- s.d., n=3

Structure (SMILES) | IL6 Expression Levels (human, 16 h, 1 μg/ml) | IL8 Expression Levels (human, 16 h, 1 μg/ml) | IL6 Expression Levels (human, 16 h, 10 μg/ml) | IL8 Expression Levels (human, 16 h, 10 μg/ml) | IL6 Expression Levels (human, 16 h, 100 μg/ml) | IL8 Expression Levels (human, 16 h, 100 μg/ml) | IL6 Expression Levels (human, 16 h, 1000 μg/ml) | IL8 Expression Levels (human, 16 h, 1000 μg/ml) | IL6 Expression Levels [1] | IL8 Expression Levels [1] | IL6 Expression Levels [2] | IL8 Expression Levels [2] | IL6 Expression Levels [3] | IL8 Expression Levels [3] | IL6 Expression Levels [4] | IL8 Expression Levels [4]
O=c1[nH]cc(F)c(=O)[nH]1 [5-Fluorouracil] | 6.2 ± 0.7 | 7.4 ± 1.4 | 6.4 ± 0.3 | 9.2 ± 1.4 | 9.2 ± 1.2 | 18.3 ± 2.2 | 1.1 ± 0.2 | 5.7 ± 0.5 | – | – | – | – | – | – | – | –
C[C@H]1O[C@H](O[C@H]2[C@H](O)[C@@H](O)[C@@H](O[C@H]3[C@H](O)[C@@H](O)C(O)O[C@@H]3CO)O[C@@H]2CO)[C@H](O)[C@@H](O)[C@@H]1N[C@H]1C=C(CO)[C@@H](O)[C@H](O)[C@H]1O (stereo partly shown) [Acarbose] | 1.2 ± 0.1 | 0.5 ± 0.1 | 1.5 ± 0.3 | 0.6 ± 0.2 | 1.3 ± 0.2 | 0.4 ± 0.1 | 1.4 ± 0.4 | 1.6 ± 0.2 | – | – | – | – | – | – | – | –
CC(=O)Nc1ccc(O)cc1 [Acetaminophen] | 1.3 ± 0.0 | 0.8 ± 0.3 | 1.2 ± 0.1 | 1.2 ± 0.2 | 1.4 ± 0.2 | 0.5 ± 0.1 | 0.3 ± 0.1 | 0.1 ± 0.0 | – | – | – | – | – | – | – | –
COc1cccc2c1cc([N+](=O)[O-])c1c(C(=O)O)cc3c(c12)OCO3 [Aristolochic acid] | – | – | – | – | – | – | – | – | 3.9 ± 0.5 | 5.0 ± 0.8 | 3.3 ± 0.2 | 4.8 ± 0.6 | 7.3 ± 1.6 | 43.5 ± 7.2 | 9.3 ± 0.5 | 1.6 ± 0.9
O=[As]O[As]=O (stereo not shown) [Arsenic (III) oxide] | – | – | – | – | – | – | – | – | 1.5 ± 0.1 | 1.2 ± 0.5 | 5.2 ± 0.1 | 4.2 ± 0.1 | 14.2 ± 2.1 | 1.5 ± 0.2 | 8.2 ± 0.3 | 3.9 ± 1.6
[Bi+3].[Bi+3].[O-2].[O-2].[O-2] [Bismuth (III) oxide] | – | – | – | – | – | – | – | – | 1.2 ± 0.1 | 0.4 ± 0.1 | 1.3 ± 0.2 | 2.6 ± 0.2 | 2.1 ± 0.1 | 33.0 ± 1.6 | 3.6 ± 0.3 | 192.7 ± 18.4
[Cl][Cd][Cl] [Cadmium chloride] | – | – | – | – | – | – | – | – | 3.6 ± 0.4 | 15.0 ± 0.8 | 10.9 ± 0.4 | 7.6 ± 0.4 | 10.3 ± 1.6 | 4.4 ± 0.6 | 11.8 ± 0.5 | 20.5 ± 8.3
[Cl][Cu][Cl] [Copper (II) chloride] | – | – | – | – | – | – | – | – | 1.2 ± 0.1 | 7.2 ± 0.6 | 2.2 ± 0.2 | 67.1 ± 18.1 | 22.5 ± 2.2 | 58.2 ± 3.2 | 13.4 ± 0.0 | –
NCC(=O)O [Glycine] | 1.6 ± 0.1 | 1.6 ± 0.6 | 1.9 ± 0.3 | 3.1 ± 1.5 | 1.7 ± 0.2 | 2.5 ± 0.6 | 1.9 ± 0.2 | 4.9 ± 1.9 | – | – | – | – | – | – | – | –
[Cl][Au] [Gold (I) chloride] | – | – | – | – | – | – | – | – | 1.2 ± 0.2 | 0.9 ± 0.2 | 1.2 ± 0.1 | 0.9 ± 0.1 | 2.9 ± 0.2 | 2.0 ± 0.0 | 23.3 ± 0.4 | 1.2 ± 0.2
